Source: patent US20140066365A1, “USE OF CALIXARENES ASSOCIATED WITH AN ANTIBIOTIC IN THE TREATMENT OF BACTERIAL INFECTIONS” (priority 2011, published 2014)
≈ marks a conversion by molar mass, not a printed value. Like-named read-outs stand apart in the source and are kept apart here. Each block holds one compound with its values, some of them ahead of it.

Key:
[1] = test system: ESBL-producing strain of Escherichia coli, having an associated resistance to the aminoglycosides (EcR3); test: MIC of the compounds used alone, microdilution in a liquid medium (CLSI); assay type: cell-based; conditions: Escherichia coli, antibiotic alone (second value of cell), read-out: Initial MICs
From the text: (§1) The MICs of the antibiotics were previously defined for each strain, by the method of microdilution in a liquid medium (CLSI (Clinical and Laboratory Standards Institute), 2003).

[2] = test system: Escherichia coli strain ATCC 25922 (wild type); test: as above; assay type: cell-based; conditions: Escherichia coli, ATCC25922; antibiotic alone (second value of cell); E. coli ATCC 25922; read-out: Initial MICs
From the text: as §1

[3] = test system: Pseudomonas aeruginosa strain ATCC 27853 (wild type); test: as above; assay type: cell-based; conditions: Pseudomonas aeruginosa, ATCC27853; antibiotic alone (second value of cell); P. aeruginosa ATCC 27853; read-out: MIC
From the text: as §1

[4] = test system: Pseudomonas aeruginosa strain PaR3; test: as above; assay type: cell-based; conditions: Pseudomonas aeruginosa, antibiotic alone (second value of cell), read-out: MIC
From the text: as §1

[5] = test system: Staphylococcus aureus strain ATCC 29213 (wild type); test: as above; assay type: cell-based; conditions: Staphylococcus aureus, ATCC29213; antibiotic alone (second value of cell); S. aureus ATCC 29213; read-out: Initial MICs
From the text: as §1

[6] = test system: cephalosporinase-hyperproducing strain of Escherichia coli (EcR2); test: as above; assay type: cell-based; conditions: Escherichia coli, antibiotic alone (second value of cell), read-out: Initial MICs
From the text: as §1

[7] = test system: mucoid strain of Pseudomonas aeruginosa PaR5; test: as above; assay type: cell-based; conditions: Pseudomonas aeruginosa, antibiotic alone (second value of cell), read-out: MIC
From the text: as §1

[8] = test system: penicillinase-producing strain of Escherichia coli without associated resistance (EcR1); test: as above; assay type: cell-based; conditions: Escherichia coli, antibiotic alone (second value of cell), read-out: Initial MICs
From the text: as §1

[9] = test system: Pseudomonas aeruginosa strain PaR2; test: microbe, parasite or virus in culture; assay type: cell-based; conditions: Pseudomonas aeruginosa, antibiotic alone (second value of cell), read-out: MIC
From the text: as §1

[10] = test system: EcR1: Penicillinase-Producing Escherichia coli without Associated Resistance; test: Antibiogram, MIC by the VITEK 2 system; assay type: cell-based; conditions: for MIC: Escherichia coli
Description: (§2) 5.1 EcR1: Penicillinase-Producing Escherichia coli without Associated Resistance The bacterial and antibiogramidentification is carried out by the VITEK 2 system (bioMérieux) and by the disk diffusion technique.

[11] = test system: EcR1: Penicillinase-Producing Escherichia coli without Associated Resistance; test: Antibiogram by the disk diffusion technique; assay type: cell-based; conditions: Table A1
Description: as §2

[12] = test system: EcR3: ESBL-Producing Escherichia coli; test: Antibiogram by the disk diffusion technique; assay type: cell-based
Description: The bacterial and antibiogramidentification is carried out by the VITEK 2 system (bioMerieux) and by the disk diffusion technique

[13] = test system: PaR3: Pseudomonas aeruginosa; test: Antibiogram, MIC by the VITEK 2 system; assay type: cell-based
Description: (§3) The bacterial and antibiogramidentification is carried out by the VITEK 2 system (bioMérieux)

[14] = test system: PaR5: Pseudomonas aeruginosa; test: Antibiogram by the disk diffusion technique; assay type: cell-based
Description: (§4) The bacterial and antibiogramidentification is carried out by the VITEK 2 system (bioMérieux) and by the disk diffusion technique

[15] = test system: PaR2: Pseudomonas aeruginosa; assay type: cell-based
Description: as §4

[16] = MIC of the compounds used alone, microdilution in a liquid medium (CLSI); assay type: cell-based, Staphylococcus aureus; conditions: Staphylococcus aureus, MRSA; antibiotic alone (second value of cell); SaR4; read-out: MIC
From the text: as §1

[17] = test system: MRSA strain having a resistance to the aminoglycosides and fluoroquinolones (SaR3); test: as above; assay type: cell-based, Staphylococcus aureus; conditions: Staphylococcus aureus, MRSA; antibiotic alone (second value of cell); SaR3; read-out: MIC
From the text: as §1

[18] = test system: MRSA strain without associated resistance (SaR1); test: as above; assay type: cell-based, Staphylococcus aureus; conditions: Staphylococcus aureus, MRSA; antibiotic alone (second value of cell); SaR1; read-out: MIC
From the text: as §1

[19] = test system: SaR1: Meticillin-Resistant Staphylococcus aureus without Associated Resistance; test: Antibiogram, MIC by the VITEK 2 system; assay type: cell-based; conditions: SaR1
Description: as §3

[20] = test system: SaR3: Meticillin-Resistant Staphylococcus aureus; test: Antibiogram by the disk diffusion technique; assay type: cell-based
Description: as §4

[21] = test system: SaR4: Meticillin-Resistant Staphylococcus aureus; test: Antibiogram, MIC by the VITEK 2 system; assay type: cell-based; conditions: SaR4; for MIC: Staphylococcus aureus, read-out: MIC
Description: as §4

[22] = test system: SaR1: Meticillin-Resistant Staphylococcus aureus without Associated Resistance; test: Antibiogram, inhibition diameter (Table D1); assay type: cell-based
Description: as §3

- MIC [1]: 1 µg/mL
- MIC [2]: 0.25 µg/mL
- MIC [3]: 0.5 µg/mL
- MIC [4]: 1 µg/mL
- MIC [5]: 1 µg/mL
- MIC [6]: 0.5 µg/mL
- MIC [7]: 0.5 µg/mL
- MIC [8]: 0.25 µg/mL
- MIC [9]: 1 µg/mL (≈ 1.71 µM)
- MIC ([10]; EcR1, Table A2, read-out: MIC mg/L (diameter in mm)): ≤ 2 mg/L
- MIC ([10]; EcR1, VITEK 2, Table A1, read-out: MIC): ≤ 2 mg/L
- MIC ([13]; Pseudomonas aeruginosa, Table H2, read-out: MIC): 4 µg/mL (≈ 6.83 µM)
- MIC ([13]; Table H1): 4 µg/mL (≈ 6.83 µM)
Compound: NCC[C@H](O)C(=O)N[C@@H]1C[C@H](N)[C@@H](O[C@H]2O[C@H](CN)[C@@H](O)[C@H](O)[C@H]2O)[C@H](O)[C@H]1O[C@H]1O[C@H](CO)[C@@H](O)[C@H](N)[C@H]1O [Amikacin]
- CA-SFM Interpretation ([10]; EcR1, MIC against Cc CA-SFM 2011): Susceptible
- CLSI Interpretation ([10]; EcR1, MIC against Cc CLSI 2011): Susceptible
- EUCAST Interpretation ([10]; EcR1, MIC against Cc EUCAST 2011): Susceptible
- Results ([10]; EcR1, interpretation of the MIC, Table A1): Susceptible
- Diameter ([11]; EcR1, disk diffusion): 19 mm
- Results ([11]; EcR1, interpretation of the diameter against Dmin Dmax): Susceptible
- CA-SFM Interpretation ([12]; Cd CA-SFM 2011): Susceptible
- CLSI Interpretation ([12]; Cd CLSI 2011): Susceptible
- EUCAST Interpretation ([12]; Cd EUCAST 2011): Susceptible
- Diameter ([12]; Table C1): 17 mm
- Results ([12]; Table C1, against Dmin Dmax): Susceptible
- diameter in mm ([12]; Table C2): 17 mm
- CA-SFM Interpretation ([13]; Cc CA-SFM 2011): Susceptible
- CLSI Interpretation ([13]; Cc CLSI 2011): Susceptible
- EUCAST Interpretation ([13]; Cc EUCAST 2011): Susceptible
- Results ([13]; Table H1): Susceptible
- Diameter ([14]; PaR5, Table I1): 27 mm
- Results ([14]; PaR5, Table I1, against Dmin-Dmax): Susceptible
- diameter in mm ([14]; disk diffusion inhibition diameter, strain PaR5): 27 mm
- CA-SFM Interpretation ([14]; disk diffusion, PaR5, versus critical diameter CA-SFM 2011): Susceptible
- CLSI Interpretation ([14]; disk diffusion, PaR5, versus critical diameter CLSI 2011): Susceptible
- EUCAST Interpretation ([14]; disk diffusion, PaR5, versus critical diameter EUCAST 2011, for ** antibiotics the disk load differs and the EUCAST interpretation is not applicable): Susceptible
- CA-SFM Interpretation ([15]; Cd CA-SFM 2011): Susceptible
- CLSI Interpretation ([15]; Cd CLSI 2011): Susceptible
- EUCAST Interpretation ([15]; Cd EUCAST 2011): Susceptible
- Diameter ([15]; Table G1): 22 mm
- Results ([15]; Table G1, against Dmin-Dmax): Susceptible
- diameter in mm ([15]; Table G2): 22 mm

- MIC [5]: 0.5 µg/mL
- MIC [16]: > 32 µg/mL
- MIC [17]: 0.5 µg/mL
- MIC [18]: 0.5 µg/mL
- MIC mg/L ([19]; Table D2): ≦0.25 mg/L
- MIC ([19]; Staphylococcus aureus, Table D1, read-out: MIC): ≤ 0.25 µg/mL
- MIC ([21]; Table F1): ≥ 8 µg/mL
- MIC ([21]; Table F2, MIC): ≥ 8 µg/mL
Compound: CC[C@H]1OC(=O)[C@H](C)[C@@H](O[C@H]2C[C@@](C)(OC)[C@@H](O)[C@H](C)O2)[C@H](C)[C@@H](O[C@@H]2O[C@H](C)C[C@H](N(C)C)[C@H]2O)[C@](C)(O)C[C@@H](C)C(=O)[C@H](C)[C@@H](O)[C@]1(C)O [Erythromycin]
- CA-SFM Interpretation ([19]; Cc CA-SFM 2011): Susceptible
- CLSI Interpretation ([19]; Cc CLSI 2011): Susceptible
- EUCAST Interpretation ([19]; Cc EUCAST 2011): Susceptible
- Results ([19]; Table D1, from MIC): Susceptible
- CA-SFM Interpretation ([20]; Cd CA-SFM 2011): Susceptible
- CLSI Interpretation ([20]; Cd CLSI 2011): Susceptible
- EUCAST Interpretation ([20]; Cd EUCAST 2011): Susceptible
- Diameter ([20]; Table E1): 25 mm
- Results ([20]; Table E1, against Dmin Dmax): Susceptible
- diameter in mm ([20]; Table E2): 25 mm
- Results ([21]; Table F1, MIC): Resistant
- CA-SFM Interpretation ([21]; from MIC, Cc CA-SFM 2011): Resistant
- CLSI Interpretation ([21]; from MIC, Cc CLSI 2011): Resistant
- EUCAST Interpretation ([21]; from MIC, Cc EUCAST 2011): Resistant
- Diameter [22]: 25 mm
- Results ([22]; from diameter, against Dmin Dmax): Susceptible
